Species: Rattus norvegicus
Assay: DrugMatrix - Regimen: Daily Repeat
Assay type: toxicity, organism-based, Sprague-Dawley
Set-up: regimen Daily Repeat, gender Male, age 6-8 weeks
Conditions: in vivo, po, route oral GAVAGE, vehicle .5 % CMC; for ABSOLUTE BASOPHIL / ABSOLUTE EOSINOPHIL / ABSOLUTE LYMPHOCYTE / ABSOLUTE MONOCYTE / ABSOLUTE SEGMENTED NEUTROPHIL / BASOPHIL / EOSINOPHIL / ERYTHROCYTE COUNT / HEMATOCRIT / HEMOGLOBIN / LEUKOCYTE COUNT / LYMPHOCYTE / MEAN CORPUSCULAR HEMOGLOBIN / MEAN CORPUSCULAR HEMOGLOBIN CONCENTRATION / MEAN CORPUSCULAR VOLUME / MONOCYTE / NEUTROPHIL / NUCLEATED RED BLOOD CELLS / PLATELET COUNT: tissue Blood; for ALANINE AMINOTRANSFERASE / ALBUMIN / ALKALINE PHOSPHATASE / ASPARTATE AMINOTRANSFERASE / BLOOD UREA NITROGEN / CARBON DIOXIDE / CHLORIDE / CHOLESTEROL / CREATINE PHOSPHOKINASE / CREATININE / GLUCOSE / LACTATE DEHYDROGENASE / LIPASE / PHOSPHORUS / POTASSIUM / SODIUM / TOTAL BILIRUBIN / TOTAL PROTEIN / URIC ACID: tissue Plasma
[1] = 0 mg/kg, 72 h, dose level Control, time 3 day
[2] = 0 mg/kg, 120 h, dose level Control, time 5 day
[3] = 0.1 mg/kg, 72 h, dose level Low, time 3 day

SMILES: CCCN1C[C@H](CSC)C[C@@H]2c3cccc4[nH]cc(c34)C[C@H]21 [PERGOLIDE]
- ABSOLUTE BASOPHIL [1]: 0 CELLS/uL
- ABSOLUTE EOSINOPHIL [1]: 284.5 CELLS/uL
- ABSOLUTE LYMPHOCYTE [1]: 11670.5 CELLS/uL
- ABSOLUTE MONOCYTE [1]: 420.83 CELLS/uL
- ABSOLUTE SEGMENTED NEUTROPHIL [1]: 1024.17 CELLS/uL
- BASOPHIL [1]: 0%
- EOSINOPHIL [1]: 1.67%
- ERYTHROCYTE COUNT [1]: 5.38 x10E6/uL
- HEMATOCRIT [1]: 34.05%
- HEMOGLOBIN [1]: 12.75 G/DL
- LEUKOCYTE COUNT [1]: 13.4 x10E3/uL
- LYMPHOCYTE [1]: 88.33%
- MEAN CORPUSCULAR HEMOGLOBIN [1]: 23.73 pg
- MEAN CORPUSCULAR HEMOGLOBIN CONCENTRATION [1]: 37.43 G/DL
- MEAN CORPUSCULAR VOLUME [1]: 63.4 fL
- MONOCYTE [1]: 2.83%
- NEUTROPHIL [1]: 7.17%
- NUCLEATED RED BLOOD CELLS [1]: 0 /100WBC
- PLATELET COUNT [1]: 1184.67 x10E3/uL
- ALANINE AMINOTRANSFERASE [1]: 45.33 u/L
- ALBUMIN [1]: 4.3 G/DL
- ALKALINE PHOSPHATASE [1]: 388.83 u/L
- ASPARTATE AMINOTRANSFERASE [1]: 84.83 u/L
- BLOOD UREA NITROGEN [1]: 15.5 mg/dL
- CARBON DIOXIDE [1]: 27 mmol/L
- CHLORIDE [1]: 101.8 MEQ/L
- CHOLESTEROL [1]: 76.67 mg/dL
- CREATINE PHOSPHOKINASE [1]: 301 u/L
- CREATININE [1]: 0.21 mg/dL
- GLUCOSE [1]: 168.83 mg/dL
- LACTATE DEHYDROGENASE [1]: 294.83 u/L
- LIPASE [1]: 9.8 u/L
- PHOSPHORUS [1]: 13.25 mg/dL
- POTASSIUM [1]: 6.41 MEQ/L
- SODIUM [1]: 143.72 MEQ/L
- TOTAL BILIRUBIN [1]: 0.22 mg/dL
- TOTAL PROTEIN [1]: 5.98 G/DL
- URIC ACID [1]: 1.5 mg/dL
- ABSOLUTE BASOPHIL [2]: 0 CELLS/uL
- ABSOLUTE EOSINOPHIL [2]: 190.67 CELLS/uL
- ABSOLUTE LYMPHOCYTE [2]: 12549.5 CELLS/uL
- ABSOLUTE MONOCYTE [2]: 276 CELLS/uL
- ABSOLUTE SEGMENTED NEUTROPHIL [2]: 1067.17 CELLS/uL
- BASOPHIL [2]: 0%
- EOSINOPHIL [2]: 1.33%
- ERYTHROCYTE COUNT [2]: 5.66 x10E6/uL
- HEMATOCRIT [2]: 35.92%
- HEMOGLOBIN [2]: 13.65 G/DL
- LEUKOCYTE COUNT [2]: 14.08 x10E3/uL
- LYMPHOCYTE [2]: 89%
- MEAN CORPUSCULAR HEMOGLOBIN [2]: 24.12 pg
- MEAN CORPUSCULAR HEMOGLOBIN CONCENTRATION [2]: 38.03 G/DL
- MEAN CORPUSCULAR VOLUME [2]: 63.47 fL
- MONOCYTE [2]: 2%
- NEUTROPHIL [2]: 7.67%
- NUCLEATED RED BLOOD CELLS [2]: 0.17 /100WBC
- PLATELET COUNT [2]: 1251.67 x10E3/uL
- ALANINE AMINOTRANSFERASE [2]: 43.33 u/L
- ALBUMIN [2]: 4.22 G/DL
- ALKALINE PHOSPHATASE [2]: 365.67 u/L
- ASPARTATE AMINOTRANSFERASE [2]: 83.67 u/L
- BLOOD UREA NITROGEN [2]: 18.17 mg/dL
- CARBON DIOXIDE [2]: 28.67 mmol/L
- CHLORIDE [2]: 103.5 MEQ/L
- CHOLESTEROL [2]: 71.5 mg/dL
- CREATINE PHOSPHOKINASE [2]: 284.5 u/L
- CREATININE [2]: 0.21 mg/dL
- GLUCOSE [2]: 161.67 mg/dL
- LACTATE DEHYDROGENASE [2]: 259.67 u/L
- LIPASE [2]: 9.5 u/L
- PHOSPHORUS [2]: 12.45 mg/dL
- POTASSIUM [2]: 6.49 MEQ/L
- SODIUM [2]: 144.25 MEQ/L
- TOTAL BILIRUBIN [2]: 0.2 mg/dL
- TOTAL PROTEIN [2]: 6.1 G/DL
- URIC ACID [2]: 1.73 mg/dL
- ABSOLUTE BASOPHIL [3]: 0 CELLS/uL
- ABSOLUTE EOSINOPHIL [3]: 0 CELLS/uL
- ABSOLUTE LYMPHOCYTE [3]: 6272.67 CELLS/uL
- ABSOLUTE MONOCYTE [3]: 109.67 CELLS/uL
- ABSOLUTE SEGMENTED NEUTROPHIL [3]: 384.33 CELLS/uL
- BASOPHIL [3]: 0%
- EOSINOPHIL [3]: 0%
- ERYTHROCYTE COUNT [3]: 5.33 x10E6/uL
- HEMATOCRIT [3]: 33.93%
- HEMOGLOBIN [3]: 12.33 G/DL
- LEUKOCYTE COUNT [3]: 6.77 x10E3/uL
- LYMPHOCYTE [3]: 92.67%
- MEAN CORPUSCULAR HEMOGLOBIN [3]: 23.1 pg
- MEAN CORPUSCULAR HEMOGLOBIN CONCENTRATION [3]: 36.37 G/DL
- MEAN CORPUSCULAR VOLUME [3]: 63.57 fL
- MONOCYTE [3]: 1.67%
- NEUTROPHIL [3]: 5.67%
- NUCLEATED RED BLOOD CELLS [3]: 0 /100WBC
- PLATELET COUNT [3]: 1337.33 x10E3/uL
- ALANINE AMINOTRANSFERASE [3]: 45.67 u/L
- ALBUMIN [3]: 4.4 G/DL
- ALKALINE PHOSPHATASE [3]: 479.67 u/L
- ASPARTATE AMINOTRANSFERASE [3]: 81.67 u/L
- BLOOD UREA NITROGEN [3]: 15.33 mg/dL
- CARBON DIOXIDE [3]: 28.67 mmol/L
- CHLORIDE [3]: 102 MEQ/L
- CHOLESTEROL [3]: 85 mg/dL
- CREATINE PHOSPHOKINASE [3]: 214.67 u/L
- CREATININE [3]: 0.21 mg/dL
- GLUCOSE [3]: 139 mg/dL
- LACTATE DEHYDROGENASE [3]: 153.33 u/L
- LIPASE [3]: 9 u/L
- PHOSPHORUS [3]: 12.77 mg/dL
- POTASSIUM [3]: 6.37 MEQ/L
- SODIUM [3]: 146.5 MEQ/L
- TOTAL BILIRUBIN [3]: 0.23 mg/dL
- TOTAL PROTEIN [3]: 6.23 G/DL
- URIC ACID [3]: 1.53 mg/dL

Reference: ChEMBL document CHEMBL3885881, “DrugMatrix”
